# PMC11124507, “Synthesis and Evaluation of Novel ^68Ga-Labeled [D-Phe^6,Leu^13ψThz^14]bombesin(6-14) Analogs for Cancer Imaging with Positron Emission Tomography” (Pharmaceuticals, 2024)
# Experiments:
# [1] = biological target: T1, GRPR (Homo sapiens, UniProt P30550); experiment: Fluorometric intracellular calcium release assay in PC-3 cells; format: cell-based; conditions: 50 nM, n = 3
# T1 construct: Known to overexpress GRPR, the PC-3 cell line, a human prostate cancer cell line; host or cells: PC-3 human prostate cancer cells
# T1 sequence (P30550 whole entry): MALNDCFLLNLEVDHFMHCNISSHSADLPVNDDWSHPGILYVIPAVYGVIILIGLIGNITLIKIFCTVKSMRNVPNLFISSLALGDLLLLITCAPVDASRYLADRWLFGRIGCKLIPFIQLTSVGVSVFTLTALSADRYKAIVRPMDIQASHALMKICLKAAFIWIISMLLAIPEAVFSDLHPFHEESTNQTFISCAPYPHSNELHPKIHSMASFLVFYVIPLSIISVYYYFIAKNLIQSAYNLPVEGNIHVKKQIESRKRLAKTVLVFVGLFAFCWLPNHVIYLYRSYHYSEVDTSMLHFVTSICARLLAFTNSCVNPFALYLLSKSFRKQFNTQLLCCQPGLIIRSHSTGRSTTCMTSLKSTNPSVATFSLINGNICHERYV
# Description: Following previously published procedures, 5 × 10^4 PC-3 cells in 100 μL of growth media were seeded per well in a 96-well clear-bottom black plate 24 h prior to the assay. A loading buffer (100 μL/well) containing a calcium-sensitive dye (FLIPR Calcium 6 assay kit) was added to the 96-well plate. After incubation at 37 °C for 2 h, the plate was placed in a FlexStation 3 microplate reader (Molecular Devices, San Jose, CA, USA). TacsBOMB2 derivatives (50 nM), [D-Phe^6,Leu-NHEt^13,des-Met^14]Bombesin(6-14) (50 nM, antagonist control), bombesin (50 nM, agonist control), adenosine triphosphate (ATP, 50 nM, positive control), or DPBS (blank control) was added, and the fluorescent signals were acquired for 2 min (λEx = 485 nm; λEm = 525 nm; n = 3). The relative fluorescent units (RFUs = max − min) were measured to determine the agonistic/antagonistic properties.
# [2] = tested on: PC-3 tumor xenografts; conditions: mouse, in vivo, 1 h; cited from earlier work
molecule,measurement,setting,value
"Nc1ncnc2c1ncn2[C@@H]1O[C@H](COP(=O)(O)OP(=O)(O)OP(=O)(O)O)[C@@H](O)[C@H]1O [ATP, adenosine triphosphate]",Ca2+ efflux,[1],222 ± 21.7 RFUs
"[D-Phe^6,Leu-NHEt^13,des-Met^14]Bombesin(6-14)",Ca2+ efflux,[1],38.2 ± 7.20 RFUs
[^68Ga]Ga-DOTA-Pip-D-Phe^6-Gln^7-Trp^8-Ala^9-Val^10-Gly^11-His^12-Leu^13ψThz^14-NH2 [[^68Ga]Ga-TacsBOMB2],Adrenal glands uptake,[2],0.57 ± 0.40 %ID/g
same,Blood uptake,[2],0.76 ± 0.21 %ID/g
same,Bone uptake,[2],0.19 ± 0.06 %ID/g
same,Brain uptake,[2],0.05 ± 0.03 %ID/g
same,Fat uptake,[2],0.09 ± 0.03 %ID/g
same,Heart uptake,[2],0.27 ± 0.08 %ID/g
same,Kidneys uptake,[2],2.51 ± 0.59 %ID/g
same,Large intestine uptake,[2],0.37 ± 0.16 %ID/g
same,Liver uptake,[2],2.61 ± 0.70 %ID/g
same,Lungs uptake,[2],0.75 ± 0.52 %ID/g
same,Muscle uptake,[2],0.15 ± 0.05 %ID/g
same,PC-3 tumor uptake,[2],10.2 ± 2.27 %ID/g
same,Pancreas uptake,[2],2.81 ± 0.78 %ID/g
same,Small intestine uptake,[2],1.04 ± 0.30 %ID/g
same,Spleen uptake,[2],0.47 ± 0.17 %ID/g
same,Stomach uptake,[2],0.32 ± 0.08 %ID/g
same,Testes uptake,[2],0.19 ± 0.05 %ID/g
bombesin,Ca2+ efflux,[1],499 ± 73.4 RFUs
